Consider two compounds from publication PMC6757289, “Design and Characterization of SGK3-PROTAC1, an Isoform Specific SGK3 Kinase PROTAC Degrader” (ACS Chemical Biology, 2019).

The experiment deals with T1, SGK3 (Homo sapiens, UniProt Q96BR1).
T1 sequence (Q96BR1 1-496): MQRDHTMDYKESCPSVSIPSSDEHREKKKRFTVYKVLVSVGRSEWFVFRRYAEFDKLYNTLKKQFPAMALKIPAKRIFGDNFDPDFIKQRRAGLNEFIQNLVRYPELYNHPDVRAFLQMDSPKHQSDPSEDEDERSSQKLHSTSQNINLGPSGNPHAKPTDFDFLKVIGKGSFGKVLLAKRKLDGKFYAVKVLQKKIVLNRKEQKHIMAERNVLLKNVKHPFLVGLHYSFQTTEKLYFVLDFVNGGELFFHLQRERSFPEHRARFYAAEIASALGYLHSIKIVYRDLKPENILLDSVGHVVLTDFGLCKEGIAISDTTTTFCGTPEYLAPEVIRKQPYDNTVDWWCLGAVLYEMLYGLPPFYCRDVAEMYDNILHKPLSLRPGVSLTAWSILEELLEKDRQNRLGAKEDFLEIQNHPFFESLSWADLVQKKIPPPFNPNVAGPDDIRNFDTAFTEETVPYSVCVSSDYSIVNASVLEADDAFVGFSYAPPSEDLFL
As to the kind of experiment: TMT global proteomic analysis of HEK293 cells. Format: cell-based. Also on record: global proteomic analysis of HEK293 cells treated in the presence or absence of 0.3 μM SGK3-PROTAC1; endogenous in cells; host or cells: HEK293. To be noted: HEK293, 0.3 μM, 8 h. On the procedure:
To establish the specificity of SGK3-PROTAC1 employing an unbiased approach, we performed quantitative Tandem–Mass–Tag (TMT)-labeled global proteomic analysis of HEK293 cells treated in the presence or absence of 0.3 μM SGK3-PROTAC1 compared to either 0.3 μM cisSGK3-PROTAC1 or DMSO for 8 h. Experiments were undertaken in triplicate, and analysis in Proteome Discoverer v2.2 using the Mascot search engine allowed relative quantification of 8766 proteins.
Figure 4 TMT proteomic analysis of HEK293 cells treated with SGK3-PROTAC1. (A) Cells were treated with DMSO (control), SGK3-PROTAC1 (0.3 μM), or cisSGK3-PROTAC1 (0.3 μM) for 8 h and lysed. Lysates were subjected to immunoblot analysis with the indicated antibodies. (B) Lysates were examined by quantitative proteomics. […]
Cell culture and proteomic sample preparation
Cells pellets were lysed with 2 ml of lysis buffer (8 M Urea, 50 mM Ammonium bicarbonate containing protease inhibitor and phosphatase inhibitor). The sample were left on ice for 15 min and were then sonicated for 5 min in ice-cold water bath under high intensity with 30 sec on and off. After sonication, benzonase® endonuclease (Merck Millipore) with the volume ratio of 1: 100 were added into the lysate to degrade DNA and RNA. The lysate were then centrifuged at 12,000 rpm for 15 min at 4 °C, and supernatants were transferred into new eppendorf tubes. The protein concentration were measured with BCA assay (Pierce™ BCA Protein Assay Kit, Thermo). The lysate from each sample was reduced with 5 mM DTT at 45 °C for 30 min. Lysates were briefly centrifuged and were cool down to room temperature before alkylation in the dark with 10 mM iodoacetamide at room temperature. The alkylation was then quenched by the addition of 5 mM DTT. Samples were first digested by Lys-C with the weight ratio of 1:200 (w/w) for 4 h at 30 °c. Then, sample were diluted with 50 mM ammonium bicarbonate to 1.5 M Urea concentration. Samples were then digested with trypsin (Pierce trypsin, Thermo) at an enzyme to protein ratio of 1:50 (w/w) at room temperature with gentle shaking for overnight.
The digest was stopped by the addition of 1% TFA (v/v), centrifuged at 10,000 g for 10 min at room temperature.
The supernatant were desalted on 200 mg SepPak tC18 cartridge (Waters). Desalted peptides were dried by vacuum centrifugation using Speedvac (Thermo).
TMT labelling and Basic C18 reverse phase (bRP) chromatography fractionation Each sample (200 μg of peptides each) was re-suspended in 100 μL of 100 mM TEAB buffer. The TMT labelling reagents were equilibrated to room temperature and 41 μL anhydrous acetonitrile was added to each reagent channel and softly vortexed for 10 min. Peptides were transferred to the corresponding TMT channels and incubated for 1 h at room temperature. The reaction was quenched with 8 μL of 5% hydroxylamine. To ensure complete labelling, 1 µg of labelled samples from each channel were analyzed by LC-MS/MS prior to mix. After evaluation, the complete TMT labelled 9 samples were then combined, acidified and dried. Sep-Pak desalting was then performed and the elution was dried to completeness.
Ultimate 3000 high-pressure liquid chromatography (HPLC) system (Dionex) were used for basic C18 reverse phase chromatography fractionation operating at 569 µL/min with two buffers: buffer A (10 mM ammonium formate, pH 10) and buffer B (80% ACN, 10 mM ammonium formate, pH 10). The desalted mixture of TMT-labelled peptides were resuspended in 200 µL of buffer A (10 mM ammonium formate, pH10) and separated on a C18 reverse phase column (4.6 × 250 mm, 3.5 μm, Waters) with a gradient from 3% B to 12.5 % B in 10 min, […]
min, 100% for 5 min, ramping to 3% B in 2.5 min and then 3% for 10 min. A total of 90 fractions (1 min per fraction) were collected before further concatenation into 30 final fractions. Each fraction was then dried and desalted over a C18 StageTip prior to analysis by mass spectrometry. […]

Molecules are shown by their SMILES.

Turning to `Cc1ccc(F)c(S(=O)(=O)Nc2ccc(-c3nc(OC[C@H]4CN(CCCCCCOCCOCCOCC(=O)N[C@H](C(=O)N5C[C@H](O)C[C@H]5C(=O)NCc5ccc(-c6scnc6C)cc5)C(C)(C)C)CCO4)c4cn[nH]c4n3)cc2)c1` [SGK3-PROTAC1], the “Abundances (Grouped)” value was 60.6, the “Ratio: (SGK3-PROTAC1) / (cSGK3-PROTAC1)” value worked out at 0.526 and the “Ratio: (compound) / (DMSO)” value is given as 0.484. In addition, the “selectivity in global proteome (8766 proteins quantified)” value (vs cisSGK3-PROTAC1 or DMSO) is “only SGK3 expression being significantly reduced”.
Regarding `Cc1ccc(F)c(S(=O)(=O)Nc2ccc(-c3nc(OC[C@H]4CN(CCCCCCOCCOCCOCC(=O)N[C@H](C(=O)N5C[C@@H](O)C[C@H]5C(=O)NCc5ccc(-c6scnc6C)cc5)C(C)(C)C)CCO4)c4cn[nH]c4n3)cc2)c1` [cisSGK3-PROTAC1], the “Abundances (Grouped)” value was 115.2 and the “Ratio: (compound) / (DMSO)” value was 0.949.
